The values that follow come from PMC11939361, “diAcCA, a Pro-Drug for Carnosic Acid That Activates the Nrf2 Transcriptional Pathway, Shows Efficacy in the 5xFAD Transgenic Mouse Model of Alzheimer’s Disease” (Antioxidants, 2025).

“Also recorded” adds a separate entry of the source.

Data set [1] in a line: Shelf life / stability of the compound over time. The data set is classed as physicochemical. To be noted: storage (CA: even if kept in the dark and cold).
Another data set relates to WT 6XC57BL6 mice. The data set is described as follows: Non-GLP toxicology analysis of esophagus and stomach (H&E, inflammation). The data set is classed as in vivo, mouse. To be noted: for overall safety / toxicology: in vivo. As for the experimental part:
Starting at 5 months of age, WT 6XC57BL6 mice were given either the highest dose of diAcCA used in this study (50 mg/kg) or olive oil vehicle three times a week for three months by oral gavage/PO. Following the treatment, the esophagus and stomach were isolated, and 5 μm-thick coronal and sagittal sections were cut from the esophagus. The stomach was opened along the greater curvature, cleaned with PBS, and pinned flat. Two 5 μm-thick sagittal sections were collected, one extending from the cardiac region to the duodenum, and the other from the forestomach to the fundic area. All sections were made using a rotary microtome (HM325-#387821, Fisher Scientific) and mounted on SuperfrostPlus slides (#1255015, Fisher brand). The sections were stained by hematoxylin and eosin stain (H&E) [Abcam H&E kit, ab245880], mounted with permount, dried overnight at room temperature, and then imaged. Acquired images were analyzed in a masked fashion for inflammation by a board-certified pathologist.
Extensive toxicity and safety data are already published on CA [47, 48]. […] Accordingly, in light of our PK findings, we selected a dose of 50 mg/kg to assess safety of the drug after oral administration to WT mice. We performed a non-GLP toxicology analysis of vehicle (olive oil) or drug administered PO three times a week for 3 months starting at 5 months of age. Following this period, sections from the stomach and esophagus were stained with H&E and examined blindly by a board-certified toxicologic pathologist.
Supplementary Figure S2. Pharmacokinetic and safety studies for diAcCA. […]
(D, E) Non-GLP toxicology analysis on WT mice after treatment with vehicle ( olive oil) or the highest concentration of diAcCA (50 mg/ kg) used in these experiments.
Representative esophagus and stomach lining sections (D) stained by hematoxylin & eosin (H&E) from two groups of mice. Scale: 500 μm. Bar graph (E) quantifying inflammation in esophagus (periesophagitis) and stomach (neutrophilic gastritis) by a standard tox inflammatory score ranging from 0 to 4 (0: inflammation within normal limits, 1: minimal […]
baseline inflammation in WT mice (n =3 animals in each group).
(1 picture or pasted object on this page, not shown here)

Data set [2] deals with 5xFAD mice. In words: Morris water maze probe test. The data set is classed as in vivo, mouse. The following applies: for Morris water maze probe test, time in the platform quadrant zone: compared to WT control mice; for Morris water maze probe test, percentage of time in the target quadrant / Morris water maze probe test, time to first enter the platform zone: compared to WT controls. As for the experimental part: (§1) diAcCA or control vehicle was administered three times per week for 3 months to 5xFAD Tg or WT littermate control mice starting at approximately 5 months of age by oral gavage (designated here as “per os” or PO). Three different doses were used (10 mg/kg, 20 mg/kg, or 50 mg/kg). diAcCA was dissolved in olive oil vehicle, a non-polar organic solvent. For vehicle control, we administered olive oil alone. A total of 45 animals were used in this study, with 7–8 animals in each group.
The Morris water maze test is used to evaluate spatial learning and memory skills in rodents. In the experimental setup, mice are placed in a circular tank containing opaque water maintained at a consistent temperature of 21 ± 1 °C. The mice undergo 2 trials each day for a period of 4 days during which they are trained to find a hidden platform placed somewhere within the tank. The platform acts as an escape for the mice from swimming. The starting point of the mice in the tank is randomized; however, the location of the platform remains unchanged for a given mouse. After entering the water, the mice are given a maximum of 90 s to navigate to the platform and climb it. If a mouse is unable to find the platform in this duration, the experimenter offers gentle guidance to help it in reaching the platform. On day 5, after the training phase is over, a “probe trial” is conducted in which the platform is removed from the water maze. The mice are allowed to swim for a period of 60 s to observe if they learned to use spatial cues to navigate to safety (i.e., swim to the area in which the platform had been located and then spend more time in this quadrant of the pool than the other quadrants). After each trial, the mice are given a 10 min rest period in which they are transferred to a new cage with a warm towel. Data are analyzed using Noldus EthoVision software (version XT 17, Leesburg, VA, USA) with parameters measured for “latency to escape” for the acquisition trials and “quadrant time” as well as “distance and velocity of swimming” in the probe test.
To delineate the effect of diAcCA on spatial memory, we performed the Morris water maze probe test, a widely used assessment for evaluating hippocampal-dependent memory. After diAcCA or vehicle treatment of WT and 5xFAD mice for 3 months starting at 5 months of age, the animals were initially trained for […] to ensure learning of the spatial memory task, i.e., swimming to the location of a hidden platform in the opaque water maze that the mice could stand on. Subsequently, their memory for the task was measured using the “probe test”, monitoring how well each mouse recalled the location of the platform once it had been removed from the swimming tank. This was assessed by the amount of time spent in the proper quadrant of the tank that previously housed the platform (the “target” quadrant) vs. other quadrants.

Data set [3] has as its system 5xFAD mice. In words: Contextual and cued conditioned fear test. The data set is classed as in vivo, mouse. The following applies: diAcCA PO for 3 months. The protocol:
as §1
Contextual and cued learning processes in mice rely on the hippocampus and amygdala, respectively. Fear conditioning is used to evaluate both of these processes. During the conditioning period, mice are trained to associate a context (distinctive environment) and a conditioned stimulus (CS, neutral stimulus consisting of a tone and light) with an unpleasant foot shock to which the mice learn to respond by freezing their movement. Here, we evaluated hippocampal function using the contextual and cued conditioned fear test. […]
On day 1, the mice were acclimatized to the chambers in a 5 min session with no shock. […] On day 3, a 5 min trial took place in the original training chamber (context test) and contextual conditioning was evaluated by observing freezing behavior. […]

`CC(=O)Oc1c(C(C)C)cc2c(c1OC(C)=O)[C@@]1(C(=O)O)CCCC(C)(C)[C@@H]1CC2` [diAcCA]: the “shelf life / stability over time” value is listed as “stable in our hands for over two years” in data set [1] and “stable shelf life (of over two years)” in data set [1] (listed as diAcCa). Also, the “baseline inflammation in the esophagus (periesophagitis), H&E” value in the data set with WT 6XC57BL6 mice (WT mice, 50 mg/kg PO three times a week for 3 months vs olive oil vehicle, n = 3, 50 mg/kg) was “appeared to improve; also recorded: improved baseline inflammation in the esophagus”. Further, the “overall safety / toxicology” value is “as safe or safer than CA” in the data set on WT 6XC57BL6 mice (mouse) and “no toxicological issues” in the data set with WT 6XC57BL6 mice (mouse, listed as diAcCa). Also, the “toxicity to the digestive system after oral administration” value with WT 6XC57BL6 mice (mouse) was “no toxicity was noted”. Further, the “Morris water maze probe test, time in the platform quadrant zone” value with 5xFAD mice [2] (10 mg/kg and 20 mg/kg) was “spent significantly less time in the platform quadrant zone compared to WT control mice”; with 5xFAD mice [2] (50 mg/kg), “spent similar amount of time in the platform quadrant as WT control mice”. The “Morris water maze probe test, percentage of time in the target quadrant” value was “spent significantly less time in the target quadrant” with 5xFAD mice [2] (10 mg/kg); “spent a similar percentage of time in the target and other quadrants as the WT controls” with 5xFAD mice [2] (20 mg/kg and 50 mg/kg). Moreover, the “Morris water maze probe test, time to first enter the platform zone” value is “took significantly more time to first enter the platform zone compared to WT controls” with 5xFAD mice [2] (10 mg/kg); “took a similar amount of time compared to WT controls” with 5xFAD mice [2] (20 mg/kg and 50 mg/kg). Moreover, the “Morris water maze probe test, performance (time in target quadrant, time to reach platform zone)” value in the data set on 5xFAD mice [2] (≥20 mg/kg, or, for total time spent in the target quadrant, 50 mg/kg) is “performed significantly better”. In the data set on 5xFAD mice [3], the “context test of conditioned fear, freezing behavior” value was “showed freezing behavior similar to WT mice”.
